Measurements: ChEMBL document CHEMBL1201862, “PubChem BioAssay data set” (2004)
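Growth conditions: 96-well plates. Treatment: test compound, 48 hours, 5 concentrations. Analysis: linear interpolation between bracketing concentrations; unreached endpoints set to highest concentration. GI50 marks 50% less growth.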 The source made the active and inactive calls. Rule as the data show it: active = GI50 up to about 1.1 µM and inactive = higher.

Tests used:
Test in all cases: DTP human tumour cell line panel, 48 h
RPMI-8226 = system: RPMI-8226
SF-268 = system: SF-268
UACC-62 = system: UACC-62
HOP-92 = system: HOP-92
CCRF-CEM = system: CCRF-CEM
A549 = system: A549
NCI-H522 = system: NCI-H522
HT-29 = system: HT-29
U-251 = system: U-251
NCI-H226 = system: NCI-H226
HCC 2998 = system: HCC 2998
TK-10 = system: TK-10
SF-539 = system: SF-539
Malme-3M = system: Malme-3M
OVCAR-3 = system: OVCAR-3
SN12C = system: SN12C
SNB-75 = system: SNB-75
CAKI-1 = system: CAKI-1
786-0 = system: 786-0
SK-OV-3 = system: SK-OV-3

| Compound | GI50 (RPMI-8226) | GI50 (SF-268) | GI50 (UACC-62) | GI50 (HOP-92) | GI50 (CCRF-CEM) | GI50 (A549) | GI50 (NCI-H522) | GI50 (HT-29) | GI50 (U-251) | GI50 (NCI-H226) | GI50 (HCC 2998) | GI50 (TK-10) | GI50 (SF-539) | GI50 (Malme-3M) | GI50 (OVCAR-3) | GI50 (SN12C) | GI50 (SNB-75) | GI50 (CAKI-1) | GI50 (786-0) | GI50 (SK-OV-3) |
| --- | --- | --- | --- | --- | --- | --- | --- | --- | --- | --- | --- | --- | --- | --- | --- | --- | --- | --- | --- | --- |
| COC(=O)c1ccc2c(c1)S/C(=C/c1ccc3ccc4cccc5ccc1c3c45)S2 | 38.3 µM (inactive) | 32.1 µM (inactive) | 22.9 µM (inactive) | 43.5 µM (inactive) | 34.5 µM (inactive) | 42 µM (inactive) | 21 µM (inactive) | > 100 µM (inactive) | 48.8 µM (inactive) | > 100 µM (inactive) | 89.3 µM (inactive) | 98.4 µM (inactive) | > 100 µM (inactive) | 32.7 µM (inactive) | 23.2 µM (inactive) | > 100 µM (inactive) | 17.3 µM (inactive) | 40.1 µM (inactive) | > 100 µM (inactive) | > 100 µM (inactive) |
| O=c1c2cc(Br)cc(Br)c2nc(CCCl)n1CCO | 34.8 µM (inactive) | 47.1 µM (inactive) | 60.8 µM (inactive) | 28.8 µM (inactive) | 41 µM (inactive) | > 100 µM (inactive) | 62.4 µM (inactive) | > 100 µM (inactive) | 67.1 µM (inactive) | 39 µM (inactive) | > 100 µM (inactive) | > 100 µM (inactive) | 81.3 µM (inactive) | 52.1 µM (inactive) | 52.2 µM (inactive) | 97.5 µM (inactive) | 22.6 µM (inactive) | 91 µM (inactive) | > 100 µM (inactive) | 58.7 µM (inactive) |
| CCOC(=O)N1CCN(Cc2cc(=O)n3ccc(C)cc3n2)CC1 | > 100 µM (inactive) | > 100 µM (inactive) | > 100 µM (inactive) | > 100 µM (inactive) | > 100 µM (inactive) | > 100 µM (inactive) | > 100 µM (inactive) | > 100 µM (inactive) | > 100 µM (inactive) | > 100 µM (inactive) | > 100 µM (inactive) | > 100 µM (inactive) | > 100 µM (inactive) | > 100 µM (inactive) | > 100 µM (inactive) | > 100 µM (inactive) | > 100 µM (inactive) | > 100 µM (inactive) | > 100 µM (inactive) | > 100 µM (inactive) |
| Cc1cn(C2CC(N)C(C(=O)O)O2)c(=O)[nH]c1=O (stereo not given) | > 100 µM (inactive) | > 100 µM (inactive) | > 100 µM (inactive) | > 100 µM (inactive) | > 100 µM (inactive) | > 100 µM (inactive) | > 100 µM (inactive) | > 100 µM (inactive) | > 100 µM (inactive) | > 100 µM (inactive) | > 100 µM (inactive) | > 100 µM (inactive) | > 100 µM (inactive) | > 100 µM (inactive) | > 100 µM (inactive) | > 100 µM (inactive) | > 100 µM (inactive) | > 100 µM (inactive) | > 100 µM (inactive) | > 100 µM (inactive) |
| CCN(CC)CCOc1ccc(/C=C(\C#N)c2ccc(OCCN(CC)CC)cc2)cc1 | 13 µM (inactive) | 19.1 µM (inactive) | 16.6 µM (inactive) | 16.9 µM (inactive) | 3.44 µM (inactive) | 19.1 µM (inactive) | 11.3 µM (inactive) | 1.43 µM (inactive) | 13.5 µM (inactive) | 39.4 µM (inactive) | 15.7 µM (inactive) | > 59.7 µM (inactive) | 7.64 µM (inactive) | 14.5 µM (inactive) | 22.4 µM (inactive) | 45.1 µM (inactive) | 16 µM (inactive) | > 43.7 µM (inactive) | 11.3 µM (inactive) | 28.2 µM (inactive) |
| N#Cc1cc([N+](=O)[O-])ccc1NC(=O)C(=O)Nc1n[nH]c(N)n1 | > 100 µM (inactive) | > 100 µM (inactive) | > 100 µM (inactive) | > 100 µM (inactive) | > 100 µM (inactive) | > 100 µM (inactive) | > 100 µM (inactive) | > 100 µM (inactive) | > 100 µM (inactive) | 86.3 µM (inactive) | > 100 µM (inactive) | > 100 µM (inactive) | > 100 µM (inactive) | > 100 µM (inactive) | > 100 µM (inactive) | > 100 µM (inactive) | > 100 µM (inactive) | > 100 µM (inactive) | > 100 µM (inactive) | > 100 µM (inactive) |
| CC(=O)O[C@H]1CCC2[C@@H]3CC[C@]4(C)CC(=O)C=C[C@]4(C)C3CC[C@@]21C (stereo not given in full) | 23 µM (inactive) | 21.2 µM (inactive) | 15.7 µM (inactive) | 48.2 µM (inactive) | 20.1 µM (inactive) | 18.3 µM (inactive) | 24.6 µM (inactive) | 18.1 µM (inactive) | 17.7 µM (inactive) | 25.2 µM (inactive) | 45.6 µM (inactive) | 54.7 µM (inactive) | 17.7 µM (inactive) | 19.4 µM (inactive) | 17.5 µM (inactive) | 24.2 µM (inactive) | 46 µM (inactive) | 83.4 µM (inactive) | 34.4 µM (inactive) | 65.8 µM (inactive) |
| COc1cc([C@@H]2c3cc4c(cc3[C@@H](NCc3ccccc3F)C3COC(=O)[C@@H]32)OCO4)cc(OC)c1O (stereo not given in full) | 1.93 µM (inactive) | 4.69 µM (inactive) | 0.463 µM (active) | 4.04 µM (inactive) | 1.49 µM (inactive) | 0.933 µM (active) | 0.361 µM (active) | 4.78 µM (inactive) | 1.89 µM (inactive) | 2.06 µM (inactive) | 11.8 µM (inactive) | 27.6 µM (inactive) | 1.47 µM (inactive) | 5.94 µM (inactive) | 15.6 µM (inactive) | 2.62 µM (inactive) | 5.45 µM (inactive) | 1.91 µM (inactive) | 2.81 µM (inactive) | 2.58 µM (inactive) |
| Cc1cn(C2CC(O)C(COP(=O)(O)OC3CC(n4c[n+]([BH2-]C#N)c5c(=O)[nH]c(N)nc54)OC3CO)O2)c(=O)[nH]c1=O (stereo not given) | > 100 µM (inactive) | > 100 µM (inactive) | > 100 µM (inactive) | > 100 µM (inactive) | > 100 µM (inactive) | > 100 µM (inactive) | > 100 µM (inactive) | > 100 µM (inactive) | > 100 µM (inactive) | > 100 µM (inactive) | > 100 µM (inactive) | > 100 µM (inactive) | > 100 µM (inactive) | > 100 µM (inactive) | > 100 µM (inactive) | > 100 µM (inactive) | > 100 µM (inactive) | > 100 µM (inactive) | > 100 µM (inactive) | > 100 µM (inactive) |
